# Experimental data: patent US3995061A, “Pharmaceutical composition and method of using the same” (Chugai Seiyaku Kabushiki Kaisha, priority 1974, dated 1976)
# Legend:
# Cholesterol in serum = assay: Serum cholesterol lowering activity in rats on high-fat feed, single oral dose; type: in vivo, Wister-Imamich strain male rats; details: rat, 75 mg/kg oral, 6 hours after administration
# Text: The cholesterol lowering activity of the ascochlorin derivatives of this invention was observed by the use of Wister-Imamich strain male rats weighing 230 ± 30 g which had been bred with the use of high-fat feed comprising 1000 g of powdery chow CLEA CE-2 (sold by NIHON CLEA KABUSHIKI KAISHA) admixed with 10 g of cholesterol, 95 g of hydrogenated coconut oil, 2 g of cholic acid, 150 g of milk casein and 671 g of sucrose.
# The rats were divided into groups of five members each, and orally administered with a different ascochlorin derivative as a suspension in gum arabic aqueous solution in a dose of 75 mg/kg.body weight. The rats were kept from eating food, and 6 hours after the administration, the blood of each rat was sampled from its heart. The total amount of cholesterol in serum was determined by a modified Zurkowski method (Clinical Chemistry, 10, 451, 1964) with the use of a colorimeter for blood analysis (sold by KYOTO DAIICHI KAGAKU).
# blood platelet = assay: Aggregation inhibition activity of blood platelet (ADP-induced, platelet rich plasma of orally dosed rats); type: in vivo, Wister-Imamich strain male rats; details: rat, 20 mg/kg oral, 6 hours; adenosine-5'-diphosphate 10^-5 M in platelet rich plasma
# Procedure: In this Example Wister-Imamich strain male rats weighing 230 ± 30 g which had been bred with the use of a commercial chow, CLEA CE-2 were used.
# The rats were divided into groups of five members each, and orally administered with a different ascochlorin derivative as a suspension in 2% gum arabic aqueous solution in a dose of 20 mg/kg.body weight. Six hours after the administration, the blood of each rat was sampled from the heart and after the addition of citric acid, the blood sample was centrifuged at 1,500 r.p.m. for 10 minutes to obtain platelet rich plasma. The anti-aggregation effect when the concentration of adenosine-5'-diphosphatein the platelet rich plasma is ultimately 10^^-5 M is shown in Table II.
# As positive controls, ascochlorin, ethyl-α-(p-chlorophenoxy) isobutylate and acetyl salicyclic acid were used. The aggregation inhibition ratio was evaluated in percent by comparing the increase of transmission rate caused by the addition of adenosin-5'-diphosphate to platelet rich plasma of the control group (no medication) with that caused on the groups administered with an ascochlorin derivative which is calculated for 100.
# Acute toxicity, rat = details: in vivo, male
# Text: (§1) Acute toxicity of the ascochlorin derivatives was observed by the use of Wister-Imamichi strain male rats weighing 230 ± 30 g and ddY strain male and female mice (5 weeks old) weighing 20 ±3 g which were divided into groups of 10 members each. Japanese native male rabbits weighing 2 kg ± 300 g which were divided into groups of five members each were also used. The test animals were orally or intraperitoneally administered with a different ascochlorin derivative as a suspension in 5% gum arabic aqueous solution, and the toxicity was compared with that of control in which ascochlorin was used.
# Acute toxicity, mouse = details: in vivo
# Text: as §1
# Acute toxicity, rabbit = assay: Acute toxicity, rabbit; set-up: species or system Japanese native male rabbits; details: in vivo, male, oral
# Text: as §1
# Serum Lipid = assay: Hypolipidemic activity: change in level of serum lipid, 30 days, high-fat feed; type: in vivo, Wister strain rats; details: rat; for Serum Cholesterol / Serum Free fatty acid / Serum Phospholipid / Serum Triglyceride / Serum β-Lipoprotein: average ± standard error
# Lipid in liver and aorta = assay: Hypolipidemic activity: change of lipid level in organs and aorta abdominalis, 30 days, high-fat feed; type: in vivo, Wister strain rats; set-up: Cholesterol in Tunica intima of aorta abdominalis: unit not given here; details: rat; for Cholesterol in Liver / Cholesterol in Tunica intima of aorta abdominalis / Phospholipid in Liver / Triglyceride in Liver: average ± standard error
# Procedure: Wister strain rats weighing 150 ± 20 g were divided into groups of 10 members each and bred with high-fat feed, the same as that used in Example 1. The rats were orally administered ascochlorin, 4-O-methylascochlorin or ethyl-α-(p-chlorophenoxy) isobutylate in a predetermined dose every morning for 30 days. Six hours after the last administration, liver and aorta of each rat were taken out and lipid level in the organs of each of the rats were determined. Lipid present in the liver and aorta was extracted with methanol-chloroform (1:1) by allowing it to stand overnight and the extract was assayed as to lipid level.
# arteriosclerosis = assay: Treatment of arteriosclerosis in human beings, oral administration; type: in vivo; details: 50 mg dose after every meal, study not completed
# Text: In order to treat arteriosclerosis by the use of the composition prepared according to the present invention, mammals and poultry are orally administered with the pharmaceutical composition prepared according to the present invention once or more a day. Especially, for human beings, it is preferable to administer the composition three times per day, after every meal. For animals other than human beings, the composition may be administered alone or by mixing it with feed. As stated above, the dose of the composition depends on the kind of animals to which it is to be administered and on the form of the composition. However, the dose ranges generally 0.05-500, preferably 0.5-50 mg/kg.body weight per day based on the ascochlorin derivative.
compound,measurement,setting,value
CCOc1c(Cl)c(C)c(C=O)c(O)c1C/C=C(C)/C=C/C1(C)C(C)CCC(=O)C1C (stereo not shown) [4-O-ethylascochlorin],Cholesterol in serum,Cholesterol in serum,82.2 mg/dL
same,Aggregation Inhibition Ratio,blood platelet,55.3%
same,LD50,"Acute toxicity, rat; ip",5100 mg/kg
same,LD50,"Acute toxicity, mouse; ip, male",5600 mg/kg
CC(/C=C/C1(C)C(C)CCC(=O)C1C)=C\Cc1c(O)c(C=O)c(C)c(Cl)c1OCC(C)C (stereo not shown) [4-O-isobutylascochlorin],Cholesterol in serum,Cholesterol in serum,88.5 mg/dL
same,Aggregation Inhibition Ratio,blood platelet,48.8%
CC(/C=C/C1(C)C(C)CCC(=O)C1C)=C\Cc1c(O)c(C=O)c(C)c(Cl)c1OC(C)C (stereo not shown) [4-O-isopropylascochlorin],Cholesterol in serum,Cholesterol in serum,85.6 mg/dL
same,Aggregation Inhibition Ratio,blood platelet,57.2%
COc1c(Cl)c(C)c(C=O)c(O)c1C/C=C(C)/C=C/C1(C)C(C)CCC(=O)C1C (stereo not shown) [4-O-methylascochlorin],Cholesterol in serum,Cholesterol in serum,76.6 mg/dL
same,LD50,"Acute toxicity, rabbit",> 2000 mg/kg
same,"Serum Cholesterol, increasing or reducing ratio based on the control",Serum Lipid; 2.25 mg/kg oral,-4.2
same,"Serum Free fatty acid, increasing or reducing ratio based on the control",Serum Lipid; 2.25 mg/kg oral,-2.4
same,"Serum Phospholipid, increasing or reducing ratio based on the control",Serum Lipid; 2.25 mg/kg oral,-12.2
same,"Serum Triglyceride, increasing or reducing ratio based on the control",Serum Lipid; 2.25 mg/kg oral,-6.8
same,"Serum β-Lipoprotein, increasing or reducing ratio based on the control",Serum Lipid; 2.25 mg/kg oral,+7.3
same,Serum Cholesterol,Serum Lipid; 2.25 mg/kg oral,102.4 ± 13.8 mg/dL
same,Serum Free fatty acid,Serum Lipid; 2.25 mg/kg oral,49.1±8.2 μ eq./dl
same,Serum Phospholipid,Serum Lipid; 2.25 mg/kg oral,119.7 ± 12.5 mg/dL
same,Serum Triglyceride,Serum Lipid; 2.25 mg/kg oral,74.5 ± 9.8 mg/dL
same,Serum β-Lipoprotein,Serum Lipid; 2.25 mg/kg oral,819 ± 109 mg/dL
same,levels of all types of lipids,"Serum Lipid; 9 mg/kg or more, oral",extremely lowered
same,"Serum Cholesterol, increasing or reducing ratio based on the control",Serum Lipid; 9.0 mg/kg oral,-18.6
same,"Serum Free fatty acid, increasing or reducing ratio based on the control",Serum Lipid; 9.0 mg/kg oral,-10.4
same,"Serum Phospholipid, increasing or reducing ratio based on the control",Serum Lipid; 9.0 mg/kg oral,-13.2
same,"Serum Triglyceride, increasing or reducing ratio based on the control",Serum Lipid; 9.0 mg/kg oral,-19.0
same,"Serum β-Lipoprotein, increasing or reducing ratio based on the control",Serum Lipid; 9.0 mg/kg oral,-22.3
same,Serum Cholesterol,Serum Lipid; 9.0 mg/kg oral,87.0 ± 4.9 mg/dL
same,Serum Free fatty acid,Serum Lipid; 9.0 mg/kg oral,44.8±3.5 μ eq./dl
same,Serum Phospholipid,Serum Lipid; 9.0 mg/kg oral,118.4 ± 5.8 mg/dL
same,Serum Triglyceride,Serum Lipid; 9.0 mg/kg oral,64.8 ± 5.2 mg/dL
same,Serum β-Lipoprotein,Serum Lipid; 9.0 mg/kg oral,593 ± 85 mg/dL
same,"Serum Cholesterol, increasing or reducing ratio based on the control",Serum Lipid; 22.5 mg/kg oral,-16.9
same,"Serum Free fatty acid, increasing or reducing ratio based on the control",Serum Lipid; 22.5 mg/kg oral,-16.3
same,"Serum Phospholipid, increasing or reducing ratio based on the control",Serum Lipid; 22.5 mg/kg oral,-13.5
same,"Serum Triglyceride, increasing or reducing ratio based on the control",Serum Lipid; 22.5 mg/kg oral,-20.5
same,"Serum β-Lipoprotein, increasing or reducing ratio based on the control",Serum Lipid; 22.5 mg/kg oral,-22.8
same,Serum Cholesterol,Serum Lipid; 22.5 mg/kg oral,88.8 ± 9.1 mg/dL
same,Serum Free fatty acid,Serum Lipid; 22.5 mg/kg oral,42.1±2.7 μ eq./dl
same,Serum Phospholipid,Serum Lipid; 22.5 mg/kg oral,117.9 ± 6.5 mg/dL
same,Serum Triglyceride,Serum Lipid; 22.5 mg/kg oral,63.6 ± 4.6 mg/dL
same,Serum β-Lipoprotein,Serum Lipid; 22.5 mg/kg oral,589 ± 133 mg/dL
same,Aggregation Inhibition Ratio,blood platelet,70.5%
same,LD50,"Acute toxicity, rat; ip",3100 mg/kg
same,LD50,"Acute toxicity, rat; oral",> 10000 mg/kg
same,LD50,"Acute toxicity, mouse; ip, female",5500 mg/kg
same,LD50,"Acute toxicity, mouse; ip, male",5000 mg/kg
same,LD50,"Acute toxicity, mouse; po, female",> 7300 mg/kg
same,LD50,"Acute toxicity, mouse; po, male",> 7300 mg/kg
same,"Cholesterol in Liver, increasing or reducing ratio based on the control",Lipid in liver and aorta; 2.25 mg/kg oral,+12.9
same,"Cholesterol in Tunica intima of aorta abdominalis, increasing or reducing ratio based on the control",Lipid in liver and aorta; 2.25 mg/kg oral,-8.1
same,"Phospholipid in Liver, increasing or reducing ratio based on the control",Lipid in liver and aorta; 2.25 mg/kg oral,+2.6
same,"Triglyceride in Liver, increasing or reducing ratio based on the control",Lipid in liver and aorta; 2.25 mg/kg oral,-23.6
same,Cholesterol in Liver,Lipid in liver and aorta; 2.25 mg/kg oral,38.4 ± 6.4 mg/g
same,Cholesterol in Tunica intima of aorta abdominalis,Lipid in liver and aorta; 2.25 mg/kg oral,18.2±1.4
same,Phospholipid in Liver,Lipid in liver and aorta; 2.25 mg/kg oral,72.0 ± 5.3 mg/g
same,Triglyceride in Liver,Lipid in liver and aorta; 2.25 mg/kg oral,16.7 ± 1.3 mg/g
same,amount of lipids in liver and cholesterol in aorta,"Lipid in liver and aorta; 9 mg/kg or more, oral",remarkably reduced
same,"Cholesterol in Liver, increasing or reducing ratio based on the control",Lipid in liver and aorta; 9.0 mg/kg oral,-15.0
same,"Cholesterol in Tunica intima of aorta abdominalis, increasing or reducing ratio based on the control",Lipid in liver and aorta; 9.0 mg/kg oral,-29.3
same,"Phospholipid in Liver, increasing or reducing ratio based on the control",Lipid in liver and aorta; 9.0 mg/kg oral,-1.6
same,"Triglyceride in Liver, increasing or reducing ratio based on the control",Lipid in liver and aorta; 9.0 mg/kg oral,-21.1
same,Cholesterol in Liver,Lipid in liver and aorta; 9.0 mg/kg oral,28.9 ± 3.6 mg/g
same,Cholesterol in Tunica intima of aorta abdominalis,Lipid in liver and aorta; 9.0 mg/kg oral,14.0±0.3
same,Phospholipid in Liver,Lipid in liver and aorta; 9.0 mg/kg oral,69.1 ± 9.9 mg/g
same,Triglyceride in Liver,Lipid in liver and aorta; 9.0 mg/kg oral,17.2 ± 2.8 mg/g
same,"Cholesterol in Liver, increasing or reducing ratio based on the control",Lipid in liver and aorta; 22.5 mg/kg oral,-21.8
same,"Cholesterol in Tunica intima of aorta abdominalis, increasing or reducing ratio based on the control",Lipid in liver and aorta; 22.5 mg/kg oral,-32.8
same,"Phospholipid in Liver, increasing or reducing ratio based on the control",Lipid in liver and aorta; 22.5 mg/kg oral,-12.0
same,"Triglyceride in Liver, increasing or reducing ratio based on the control",Lipid in liver and aorta; 22.5 mg/kg oral,-22.1
same,Cholesterol in Liver,Lipid in liver and aorta; 22.5 mg/kg oral,26.6 ± 2.2 mg/g
same,Cholesterol in Tunica intima of aorta abdominalis,Lipid in liver and aorta; 22.5 mg/kg oral,13.3±0.4
same,Phospholipid in Liver,Lipid in liver and aorta; 22.5 mg/kg oral,61.8 ± 4.3 mg/g
same,Triglyceride in Liver,Lipid in liver and aorta; 22.5 mg/kg oral,17.0 ± 0.7 mg/g
same,effect in human beings,arteriosclerosis,satisfactory effect
CCCCOc1c(Cl)c(C)c(C=O)c(O)c1C/C=C(C)/C=C/C1(C)C(C)CCC(=O)C1C (stereo not shown) [4-O-n-butylascochlorin],Cholesterol in serum,Cholesterol in serum,86.9 mg/dL
same,Aggregation Inhibition Ratio,blood platelet,53.7%
